Test: gradient 5% acetonitrile 3 min, to 50% in 2 min, to 85% in 15 min, held 3 min, 100 µL/min
Settings: column: Zorbax Extend-C18 2.1 x 50 mm; eluents: water / acetonitrile, 0.1% formic acid
In short: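 Retention times of pure standards were taken from adduct peaks that were selected by computer and manually inspected. Over 3 months, mixtures of ~100 molecules were run by HPLC–quadrupole time-of-flight mass spectrometry in positive and negative ionization mode. The Zorbax Extend-C18 column (2.1 × 50 mm, 1.8 μm) ran at 100 μL/min in water and acetonitrile, each containing 0.1% formic acid, with 40 μL dead volume and 900 μL dwell volume.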

RP-LC retention time [s] | SMILES
1170 | CC(C)n1c(=O)oc2cc(-c3noc(-c4ccc(F)cc4)n3)ccc21
675 | CCOC(=O)c1c(C)[nH]c(C(=O)N2CCC(CC(=O)N3CCOCC3)CC2)c1C
1130 | Clc1cccc(-c2noc(-c3nc(-c4ccncc4)no3)n2)c1
831 | Brc1ccc(OCc2nnc3sc(-c4cccnc4)nn23)cc1
638 | Cc1cc2c(cc1S(=O)(=O)N1CCCC1C(=O)N1CCOCC1)OC(C)C(=O)N2 (stereo unspecified)
769 | COc1cccc(CNC(=O)CN2CCN(Cc3ccc(F)cc3)C2=O)c1
870 | COc1ccc(-c2noc(C3CC(=O)N(c4ccc(C(C)C)cc4)C3)n2)cc1OC (stereo unspecified)
678 | c1cnn(-c2cc(N3CCCC3)ncn2)c1
630 | NC(=O)C1CCN(C(=O)CN2c3ccccc3NC3=C(C(=O)CCC3)C2c2cccs2)CC1 (stereo unspecified)
651 | O=C(NCCCn1c(-c2ccncc2)nc2cccnc21)Nc1cccc(F)c1
900 | Cc1ccc(-c2cc(-c3nc4c5ccccc5ncn4n3)[nH]n2)c(C)c1
564 | Cc1cnc(C2CCN(S(=O)(=O)c3ccccc3)C2)n1C(C)C (stereo unspecified)
976 | CCc1noc(-c2nc(-c3ccc(OC)c(OC)c3)no2)n1
771 | Cc1cccc(NC(=O)N2CCCC2c2c(C)noc2C)c1 (stereo unspecified)
759 | COCCOCc1nc(C2CCCN2S(=O)(=O)c2cccc3nsnc23)no1 (stereo unspecified)
827 | CCn1ccc(C(=O)N2CCCC2c2nc(-c3ccc(F)cc3F)no2)n1 (stereo unspecified)
647 | O=c1n(Cc2ccccc2)nc2c(S(=O)(=O)N3CCCCC3)cccn12
591 | CC(C)NC(=O)N1Cc2ccccc2OC2(CCN(C)CC2)C1
604 | COc1cccc(CN2CC[C@@H]3CN(S(C)(=O)=O)[C@@H]3C2)c1OC
677 | COCCc1noc(-c2cnc3nc(C)ccc3c2Nc2ccccc2)n1
1040 | Cc1nn(-c2ccccc2)c(C)c1S(=O)(=O)N1CCC(C(=O)Nc2cccc(Cl)c2)CC1
764 | Cc1ccc2c(Nc3ccc(F)c(C)c3)c(-c3nc(C)no3)cnc2n1
663 | O=C(NCc1ccco1)C1CN(C(=O)c2ccc(F)c(F)c2)C1

RP-LC retention time [s] | SMILES
944 | CCN(C(=O)Cn1nc(C(=O)N2CCCCC2)c2ccccc21)c1ccccc1
813 | Cc1cccc(NC(=O)C2CCCN2S(=O)(=O)c2cc3c(cc2C)NC(=O)C(C)O3)c1 (stereo unspecified)
572 | Cn1cc(CN2CCC(C(=O)NCC3CCN(Cc4cccc(F)c4)CC3)CC2)c2ccccc21
847 | CC1=C(c2ccccc2)S(=O)(=O)N=C1N1CCCN(C(=O)c2cccc(F)c2)CC1
797 | Cc1ccc(CC(=O)NC2CCN(c3ccccc3)C2=O)cc1 (stereo unspecified)
672 | COc1cc(NC(=O)CCc2c(-c3ccc(F)cc3)nc3ccccn23)cc(OC)c1
737 | COC(=O)c1ncn2c1C(=O)N(Cc1ccccc1F)C(C)(C(=O)NC1CCCC1)C2 (stereo unspecified)
663 | Cc1cc(C)nc(SCCCNC(=O)Nc2cc(C)on2)n1
607 | O=C(CN1CCN(C(=O)c2sc3ncccc3c2-n2cccc2)CC1)N1CCCC1
879 | COc1ccc(-n2nnc(-c3nc(C)c(C(=O)NCc4ccco4)s3)c2C)cc1
747 | Cc1cccc(C)c1Nc1c(-c2ccc(N(C)C)cc2)nc2ncccn12
985 | CCCCn1cc(S(=O)(=O)Nc2ccccc2C)c2cccnc21
697 | CNS(=O)(=O)CCCOc1ccc2c(c1)OCO2
800 | O=C(CC1(O)C(=O)Nc2c(Cl)cc(Cl)cc21)c1ccc([N+](=O)[O-])cc1 (stereo unspecified)
909 | Nc1ncnc(N2CCN(c3ccc(Cl)c(Cl)c3)CC2)c1[N+](=O)[O-]
770 | Cc1cccc2c(=O)n(C3CCN(C(=O)Nc4ccc(F)cc4F)CC3)cnc12
981 | O=C(NCc1ccccc1)c1cccn1Cc1noc(-c2ccccc2)n1
649 | COCc1cn(C2CN(C(=O)c3ccc(OC)c(F)c3)C2)nn1
657 | Cn1c(=O)n(CC(N)=O)c(=O)c2c1nc1n2CCCN1C1CCCCC1
619 | O=C(NCc1cccnc1)C1CN(C(=O)c2cccs2)CC12CCCCC2 (stereo unspecified)
999 | COc1ccc(NS(=O)(=O)c2c(C)nn(-c3ccc(-c4ccc(C)cc4)nn3)c2C)cc1F
692 | CCN1CCn2cc(S(=O)(=O)Nc3ccc(C(=O)OC)cc3)cc2C1=O
1240 | COC(=O)c1ccc2c(=O)n(-c3cccc(C)c3)c(N3CCCCC3)nc2c1

RP-LC retention time [s] | SMILES
590 | CCN(CC)CCn1c(C)c(C)c2c1ncn1nc(-c3cccnc3)nc21
549 | O=C(NCCN1CCOCC1)C(=O)Nc1ccccc1Cl
823 | O=C(NC1CCCCCC1)c1ccc(CN2CCN(C3CCCC3)C(=O)C2=O)cc1
879 | O=c1c(=O)n(Cc2nc(-c3ccc4c(c3)OCO4)no2)ccn1Cc1ccc(Cl)cc1
702 | CC(=O)N1CCc2cc(N3CC(C(=O)NCc4cccc(Cl)c4)CC3=O)ccc21 (stereo unspecified)
871 | CCCCC(=O)Nc1nc(-c2ccc3c(c2)NC(=O)C(C)O3)c(C)s1 (stereo unspecified)
858 | CC(CCc1ccccc1)NC(=O)c1ccc(-n2cccn2)nc1 (stereo unspecified)
960 | Cc1nc(-c2ccc3c(c2)CCN3C(=O)COc2ccc(F)cc2)cs1
932 | CCC(C(=O)NCCc1c[nH]c2ccccc12)n1nc(C)c2nn(-c3ccccc3)c(C)c2c1=O (stereo unspecified)
682 | CCOC(=O)C1CCN(C(=O)COc2ccc(NC(=O)C3CC3)cn2)CC1
861 | N#Cc1ccsc1NC(=O)c1cccc(Cl)c1
1190 | CC1CCN(S(=O)(=O)c2ccc3nc(N4CCN(c5ccc(F)cc5)CC4)ccc3c2)CC1
595 | COc1cccc2c(Nc3ccc(S(N)(=O)=O)cc3)cc(C(=O)N3CCSCC3)nc12
606 | CCc1nc2cc(N3CCCC(C(=O)NC(C)c4cccnc4)C3)cnc2nc1CC (stereo unspecified)
822 | Cc1ccc(C)c(N2CCN(C(=O)C3CCN(S(=O)(=O)c4cn(C)c(C)n4)CC3)CC2)c1
710 | CCOC(=O)C1CCN(C(=O)C2CCCN2S(=O)(=O)c2cc3c(cc2Cl)NC(=O)CO3)CC1 (stereo unspecified)
804 | COc1cccc2cc(C(=O)Nc3nc(C)cs3)oc12
716 | COCCOCc1nc(C2CCCN2C(=O)c2sccc2C)no1 (stereo unspecified)
626 | CN1C(=O)CCc2cc(C(=O)NC3CC3)ccc21
1200 | COc1ccc(N2CCN(c3cc(SCC(=O)Nc4ccc(C)cc4Cl)ncn3)CC2)cc1
789 | O=C(NCc1ccc(F)cc1F)c1csc(C(=O)NC2CC2)n1
695 | Cc1ccccc1Cn1ccnc1C(N)=O
599 | CCCNC(=O)CSc1ncccc1C(=O)O

RP-LC retention time [s] | SMILES
736 | COc1ccccc1NC(=O)N1CCC(n2cnc3ccccc3c2=O)CC1
561 | CCC(=O)N1CC(=O)N(CC)C2(CCOCC2)C1
704 | O=C(c1ccco1)N1CCN(c2ccc3cc(S(=O)(=O)N4CCCC4)ccc3n2)CC1
889 | Cc1ccc(CNc2c(-c3ccc(N(C)C)cc3)nc3ncccn23)cc1
806 | COc1ccc(S(=O)(=O)N2CCCC(C(=O)N3CCCC3)C2)cc1C (stereo unspecified)
677 | Cn1c(=O)c2c(ncn2CC(=O)N2CCCn3nc(-c4cccc(F)c4)cc3C2)n(C)c1=O
1210 | CCOc1ccc(-c2nc(-c3cccc(-c4ccnn4C)c3)no2)cc1OCC
772 | O=C(NCCn1c(=O)n(Cc2ccc(F)cc2)c2cccnc21)c1cccs1
633 | CCCNC(=O)c1cccc2c1CCN2C(C)=O
946 | O=C1COc2ccc(-c3csc(NC(=O)c4ccc(Br)cc4)n3)cc2N1
894 | CN1C(=O)C(C)(C(=O)Nc2ccc(Cl)cc2F)Oc2cccnc21 (stereo unspecified)
585 | O=C1NC(C(=O)NCCCn2cccn2)Cn2cccc21 (stereo unspecified)
618 | Cc1cccc2nnc(N3CCN(C(=O)c4cccs4)CC3)n12
624 | COC(=O)Cn1c(=O)oc2cc(S(=O)(=O)N3CCN(c4ccccn4)CC3)ccc21
666 | CCCNC(=O)c1ccc(-c2ccc(N3CCSCC3)nc2)cc1
824 | Nc1cc(C2CCN(S(=O)(=O)c3cccc(Br)c3)CC2)no1
832 | CCc1nc2onc(C)c2c(=O)n1CC(=O)NCC(C)c1ccccc1 (stereo unspecified)
662 | Cc1ccc(S(=O)(=O)Nc2ccc(-c3cn4ccccc4n3)cc2)cc1[N+](=O)[O-]
690 | Cc1cccc(N2CCN(C(=O)C3=CCN(Cc4cccc(F)c4)CC3)CC2)c1
721 | COc1ccc(CN(Cc2ccccc2)Cc2cc(=O)n3cc(Cl)ccc3n2)cc1
581 | O=C(NCCN1CCN(C(=O)NCCCc2ccccc2)CC1)c1ccc2c(c1)OCO2

SMILES | RP-LC retention time [s]
Cc1cc(C(=O)N2CC3CC(C2)c2cccc(=O)n2C3)c(C)o1 (stereo unspecified) | 590
